Read-outs that look alike come from different tables or passages of the source.
Test system: pediatric patients with advanced solid tumors
Conditions: for Leukopenia (treatment-related AE): laboratory values only
Experimental: This phase 1, multicenter, open-label study was conducted at a total of 8 study sites (3 study sites in the United States and 5 Innovative Therapies for Children with Cancer [ITCC] Consortium centers [2 in the United Kingdom and 3 in France]) between January 31, 2012, and the data cutoff, January 14, 2014 (ClinicalTrials.gov identifier NCT01431534; European Clinical Trials Database [EudraCT] number 2011-000729-55). An enteric-coated tablet formulation of ridaforolimus was orally administered for 5 consecutive days and not administered for 2 consecutive days per week in 28-day cycles until progression, unacceptable toxicity, or consent withdrawal. […] Dose escalation was conducted by using a modified toxicity probability intervals method that targeted a 30% DLT rate and started at 22 mg/m^2 (the equivalent of the adult RP2D [27], a 40-mg dose in adults with a BSA of 1.8 m^2). […] Dosing was adjusted based on BSA and rounded to the nearest 10-mg tablet. Patients were to be treated at sequentially rising dose levels until a preliminary MTD was identified.
Toxicity was graded according to the National Cancer Institute Common Terminology Criteria for Adverse Events, version 4.0 [42]. Safety data were reported for all patients who received at least 1 dose of the study drug. […] Once the RP2D of ridaforolimus was defined, an expansion cohort to be treated at the RP2D was planned to obtain additional safety, tolerability, and pharmacokinetic data.

CO[C@H]1C[C@@H]2CC[C@@H](C)[C@@](O)(O2)C(=O)C(=O)N2CCCC[C@H]2C(=O)O[C@H]([C@H](C)C[C@@H]2CC[C@@H](OP(C)(C)=O)[C@H](OC)C2)CC(=O)[C@H](C)/C=C(\C)[C@@H](O)[C@@H](OC)C(=O)[C@H](C)C[C@H](C)/C=C/C=C/C=C/1C [ridaforolimus]
Increased alkaline phosphatase (treatment-related AE) (33 mg/m^2 n = 13, grades 3–4): 0 n (%)
Increased bilirubin (treatment-related AE) (33 mg/m^2 n = 13, grades 3–4): 0 n (%)
Increased γ-glutamyltransferase (treatment-related AE) (33 mg/m^2 n = 13, grades 3–4): 1 (8) n (%)
Lymphopenia (treatment-related AE) (33 mg/m^2 n = 13, grades 3–4): 1 (8) n (%)
Nausea (treatment-related AE) (33 mg/m^2 n = 13, grades 3–4): 0 n (%)
Neutropenia (treatment-related AE) (33 mg/m^2 n = 13, grades 3–4): 1 (8) n (%)
Oral herpes (treatment-related AE) (33 mg/m^2 n = 13, grades 3–4): 0 n (%)
Patients with ≥1 treatment-related adverse event (33 mg/m^2 n = 13, grades 3–4): 5 (38) n (%)
Photophobia (treatment-related AE) (33 mg/m^2 n = 13, grades 3–4): 0 n (%)
Rash (treatment-related AE) (33 mg/m^2 n = 13, grades 3–4): 0 n (%)
Stomatitis (treatment-related AE) (33 mg/m^2 n = 13, grades 3–4): 0 n (%)
Thrombocytopenia (treatment-related AE) (33 mg/m^2 n = 13, grades 3–4): 1 (8) n (%)
Vomiting (treatment-related AE) (33 mg/m^2 n = 13, grades 3–4): 0 n (%)
Leukopenia (treatment-related AE) (33 mg/m^2 n = 13, grades 3–4): 0 n (%)
Anemia (treatment-related AE) (Total N = 20, any grade): 8 (40) n (%)
Decreased appetite (treatment-related AE) (Total N = 20, any grade): 2 (10) n (%)
Decreased weight (treatment-related AE) (Total N = 20, any grade): 2 (10) n (%)
Diarrhea (treatment-related AE) (Total N = 20, any grade): 2 (10) n (%)
Dry mouth (treatment-related AE) (Total N = 20, any grade): 2 (10) n (%)
Dysgeusia (treatment-related AE) (Total N = 20, any grade): 3 (15) n (%)
Epistaxis (treatment-related AE) (Total N = 20, any grade): 2 (10) n (%)
Fatigue (treatment-related AE) (Total N = 20, any grade): 9 (45) n (%)
Headache (treatment-related AE) (Total N = 20, any grade): 3 (15) n (%)
Hypercholesterolemia (treatment-related AE) (Total N = 20, any grade): 9 (45) n (%)
Hyperglycemia (treatment-related AE) (Total N = 20, any grade): 2 (10) n (%)
Hypertriglyceridemia (treatment-related AE) (Total N = 20, any grade): 10 (50) n (%)
Hypocalcemia (treatment-related AE) (Total N = 20, any grade): 2 (10) n (%)
Hypokalemia (treatment-related AE) (Total N = 20, any grade): 2 (10) n (%)
Hypophosphatemia (treatment-related AE) (Total N = 20, any grade): 5 (25) n (%)
Increased ALT (treatment-related AE) (Total N = 20, any grade): 10 (50) n (%)
Increased AST (treatment-related AE) (Total N = 20, any grade): 8 (40) n (%)
Increased alkaline phosphatase (treatment-related AE) (Total N = 20, any grade): 2 (10) n (%)
Increased bilirubin (treatment-related AE) (Total N = 20, any grade): 2 (10) n (%)
Increased γ-glutamyltransferase (treatment-related AE) (Total N = 20, any grade): 5 (25) n (%)
Lymphopenia (treatment-related AE) (Total N = 20, any grade): 2 (10) n (%)
Nausea (treatment-related AE) (Total N = 20, any grade): 6 (30) n (%)
Neutropenia (treatment-related AE) (Total N = 20, any grade): 6 (30) n (%)
Oral herpes (treatment-related AE) (Total N = 20, any grade): 2 (10) n (%)
Patients with ≥1 treatment-related adverse event (Total N = 20, any grade): 19 (95) n (%)
Photophobia (treatment-related AE) (Total N = 20, any grade): 3 (15) n (%)
Rash (treatment-related AE) (Total N = 20, any grade): 2 (10) n (%)
Stomatitis (treatment-related AE) (Total N = 20, any grade): 15 (75) n (%)
Thrombocytopenia (treatment-related AE) (Total N = 20, any grade): 13 (65) n (%)
Vomiting (treatment-related AE) (Total N = 20, any grade): 3 (15) n (%)
Leukopenia (treatment-related AE) (Total N = 20, any grade): 7 (35) n (%)
Anemia (treatment-related AE) (Total N = 20, grades 3–4): 0 n (%)
Decreased appetite (treatment-related AE) (Total N = 20, grades 3–4): 0 n (%)
Decreased weight (treatment-related AE) (Total N = 20, grades 3–4): 0 n (%)
Diarrhea (treatment-related AE) (Total N = 20, grades 3–4): 0 n (%)
Dry mouth (treatment-related AE) (Total N = 20, grades 3–4): 0 n (%)
Dysgeusia (treatment-related AE) (Total N = 20, grades 3–4): 0 n (%)
Epistaxis (treatment-related AE) (Total N = 20, grades 3–4): 0 n (%)
Fatigue (treatment-related AE) (Total N = 20, grades 3–4): 0 n (%)
Headache (treatment-related AE) (Total N = 20, grades 3–4): 0 n (%)
Hypercholesterolemia (treatment-related AE) (Total N = 20, grades 3–4): 1 (5) n (%)
Hyperglycemia (treatment-related AE) (Total N = 20, grades 3–4): 0 n (%)
Hypertriglyceridemia (treatment-related AE) (Total N = 20, grades 3–4): 1 (5) n (%)
Hypocalcemia (treatment-related AE) (Total N = 20, grades 3–4): 0 n (%)
Hypokalemia (treatment-related AE) (Total N = 20, grades 3–4): 0 n (%)
Hypophosphatemia (treatment-related AE) (Total N = 20, grades 3–4): 1 (5) n (%)
Increased ALT (treatment-related AE) (Total N = 20, grades 3–4): 5 (25) n (%)
Increased AST (treatment-related AE) (Total N = 20, grades 3–4): 1 (5) n (%)
Increased alkaline phosphatase (treatment-related AE) (Total N = 20, grades 3–4): 0 n (%)
Increased bilirubin (treatment-related AE) (Total N = 20, grades 3–4): 0 n (%)
Increased γ-glutamyltransferase (treatment-related AE) (Total N = 20, grades 3–4): 1 (5) n (%)
Lymphopenia (treatment-related AE) (Total N = 20, grades 3–4): 1 (5) n (%)
Nausea (treatment-related AE) (Total N = 20, grades 3–4): 0 n (%)
Neutropenia (treatment-related AE) (Total N = 20, grades 3–4): 1 (5) n (%)
Oral herpes (treatment-related AE) (Total N = 20, grades 3–4): 1 (5) n (%)
Patients with ≥1 treatment-related adverse event (Total N = 20, grades 3–4): 9 (45) n (%)
Photophobia (treatment-related AE) (Total N = 20, grades 3–4): 0 n (%)
Rash (treatment-related AE) (Total N = 20, grades 3–4): 0 n (%)
Stomatitis (treatment-related AE) (Total N = 20, grades 3–4): 0 n (%)
Thrombocytopenia (treatment-related AE) (Total N = 20, grades 3–4): 2 (10) n (%)
Vomiting (treatment-related AE) (Total N = 20, grades 3–4): 0 n (%)
Leukopenia (treatment-related AE) (Total N = 20, grades 3–4): 0 n (%)
Anemia, treatment-related (all patients, N = 20): 40%
Fatigue, treatment-related (all patients, N = 20): 45%
Hypercholesterolemia, treatment-related (all patients, N = 20): 45%
Hypertriglyceridemia, treatment-related (all patients, N = 20): 50%
Increased ALT, treatment-related (all patients, N = 20): 50%
Increased aspartate aminotransferase (AST), treatment-related (all patients, N = 20): 40%
Leukopenia, treatment-related (all patients, N = 20): 35%
Nausea, treatment-related (all patients, N = 20): 30%
Neutropenia, treatment-related (all patients, N = 20): 30%
Patients with at least 1 treatment-related adverse event (all patients, N = 20): 95%
Serious adverse events related to study treatment (all patients, N = 20): 15%
Stomatitis, treatment-related (all patients, N = 20): 75%
Thrombocytopenia, treatment-related (all patients, N = 20): 65%
Treatment-related grade 3/4 increased ALT (all patients, N = 20): 25%
Treatment-related grade 3/4 thrombocytopenia (all patients, N = 20): 10%
Treatment-related grade 3/4 adverse events (all patients, N = 20 (9 patients)): 45%
Serious adverse events (all patients, N = 20 (12 patients), most disease related): 60%
Time to DLT onset, days (dose level 3, 33 mg/m^2, cycle 1): 22 (cycle 1) days
Recommended phase 2 dose (RP2D) for oral ridaforolimus in children (once daily 5 days/week): 33 mg/m^2
Deaths / grade 5 adverse events related to ridaforolimus (three deaths during the study): No deaths were considered related to ridaforolimus
